Holding throughout (format): cell-based
The test system of one experiment is E. coli ATCC 10596. As to the kind of experiment: MIC by broth microdilution, E. coli. Particulars: Escherichia coli, read-out: E. coli ATCC 10536 MIC. In outline: (§1)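 Media: TSB or CAMHB for S. aureus, LB or CAMHB for E. coli, with zinc sulphate to 50 μM final where required. Cells at ~5×10^5 cfu/mL met two-fold compound series; growth was scored by OD600 after 24 h shaking at 37° C.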
For orientation: Broth dilution looks for growth in wells or tubes with falling amounts of substance.

For another experiment, the system named is S. aureus ATCC 6538. As to the kind of experiment: MIC by broth microdilution, S. aureus. Particulars: Staphylococcus aureus, read-out: S. aureus ATCC 6538 MIC. In outline: as §1
A further experiment relates to S. uberis ATCC 19436. As to the kind of experiment: MIC by broth microdilution, S. uberis. Particulars: Streptococcus uberis, read-out: S. uberis ATCC 19436 MIC. In outline:
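This broth microdilution assay used S. uberis ATCC 19436 in Todd Hewitt Broth, with zinc sulphate heptahydrate added where required to a final 50 μM. Inhibitor concentration ranges came from two-fold serial dilutions in 96-well flat bottom plates at 200 μl. Approximately 5×10^5 cfu/mL cells were incubated for 24 h at 37° C. and 200 rpm. Wells were then read at OD600 on a Varioskan Flash reader.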

[1] abbreviates: ATCC 10536 / ATCC 10596, No Zinc.
[2] abbreviates: ATCC 10536 / ATCC 10596, Zinc (50 μM).

Converted amounts (≈) assume the structure as drawn. Where two headings read alike, the source gives them in different places.

A word on the MIC: it is the lowest concentration found to suppress growth. For `CC(=O)c1cccc(S(=O)(=O)Nc2cccc3ccc(CN(C)C)nc23)c1` [ZDR311, 3-Acetyl-N-(2-((dimethylamino)methyl)quinolin-8-yl)benzenesulfonamide], the MIC in the experiment on E. coli ATCC 10596 (setting [1]) was above 256 µg/mL; in the experiment with E. coli ATCC 10596 (setting [2]), above 256 µg/mL; with S. aureus ATCC 6538 (ATCC6538, No Zinc), above 256 µg/mL; with S. aureus ATCC 6538 (ATCC6538, Zinc (50 μM)) it was 256 µg/mL (≈ 668 µM); in the experiment on S. uberis ATCC 19436 (ATCC19436, No Zinc), 256 µg/mL (≈ 668 µM); with S. uberis ATCC 19436 (ATCC19436, Zinc (50 μM)) it was 0.0625 µg/mL (≈ 0.163 µM).

Turning to `CN(C)Cc1ccc2cccc(NS(=O)(=O)c3cccc(F)c3)c2n1` [ZDR312, N-(2-((Dimethylamino)methyl)quinolin-8-yl)-3-fluorobenzenesulfonamide], the MIC in the experiment with E. coli ATCC 10596 (setting [1]) was above 256 µg/mL; in the experiment on E. coli ATCC 10596 (setting [2]), above 256 µg/mL; with S. aureus ATCC 6538 (ATCC6538, No Zinc), 256 µg/mL (≈ 712 µM); in the experiment with S. aureus ATCC 6538 (ATCC6538, Zinc (50 μM)), 256 µg/mL (≈ 712 µM); in the experiment on S. uberis ATCC 19436 (ATCC19436, No Zinc), 128 µg/mL (≈ 356 µM); in the experiment on S. uberis ATCC 19436 (ATCC19436, Zinc (50 μM)), 0.125 µg/mL (≈ 0.348 µM).

`CN(C)Cc1ccc2cccc(NS(=O)(=O)c3cccc([N+](=O)[O-])c3)c2n1` [ZDR313, N-(2-((Dimethylamino)methyl)quinolin-8-yl)-3-nitrobenzenesulfonamide]: the minimum inhibitory concentration (MIC) in the experiment on E. coli ATCC 10596 (setting [1]) is above 256 µg/mL; in the experiment with E. coli ATCC 10596 (setting [2]), above 256 µg/mL; with S. aureus ATCC 6538 (ATCC6538, No Zinc), 128 µg/mL (≈ 331 µM); in the experiment on S. aureus ATCC 6538 (ATCC6538, Zinc (50 μM)) it was above 256 µg/mL; in the experiment on S. uberis ATCC 19436 (ATCC19436, No Zinc), 128 µg/mL (≈ 331 µM); with S. uberis ATCC 19436 (ATCC19436, Zinc (50 μM)), 0.25 µg/mL (≈ 0.647 µM).

Consider `COc1cccc(S(=O)(=O)Nc2cccc3ccc(CN(C)C)nc23)c1` [ZDR314, N-(2-((Dimethylamino)methyl)quinolin-8-yl)-3-methoxybenzenesulfonamide], for which the minimal inhibitory concentration (MIC) with E. coli ATCC 10596 (setting [1]) is above 256 µg/mL; in the experiment with E. coli ATCC 10596 (setting [2]), above 256 µg/mL; with S. aureus ATCC 6538 (ATCC6538, No Zinc), 256 µg/mL (≈ 689 µM); in the experiment with S. aureus ATCC 6538 (ATCC6538, Zinc (50 μM)) it was above 256 µg/mL; in the experiment on S. uberis ATCC 19436 (ATCC19436, No Zinc) it was 128 µg/mL (≈ 345 µM); in the experiment with S. uberis ATCC 19436 (ATCC19436, Zinc (50 μM)), 0.25 µg/mL (≈ 0.673 µM).

With `Cc1cccc(S(=O)(=O)Nc2cccc3ccc(CN(C)C)nc23)c1` [ZDR315, N-(2-((Dimethylamino)methyl)quinolin-8-yl)-3-methylbenzenesulfonamide], the minimal inhibitory concentration (MIC) in the experiment with E. coli ATCC 10596 (setting [1]) was above 256 µg/mL; with E. coli ATCC 10596 (setting [2]) it was above 256 µg/mL; with S. aureus ATCC 6538 (ATCC6538, No Zinc), 256 µg/mL (≈ 720 µM); with S. aureus ATCC 6538 (ATCC6538, Zinc (50 μM)), above 256 µg/mL; in the experiment on S. uberis ATCC 19436 (ATCC19436, No Zinc), above 256 µg/mL; in the experiment with S. uberis ATCC 19436 (ATCC19436, Zinc (50 μM)), 0.25 µg/mL (≈ 0.703 µM).

Take `CN(C)Cc1ccc2cccc(NS(=O)(=O)CCC(F)(F)F)c2n1` [ZDR316, N-(2-((Dimethylamino)methyl)quinolin-8-yl)-3,3,3-trifluoropropane-1-sulfonamide]: the MIC in the experiment on E. coli ATCC 10596 (setting [1]) is above 256 µg/mL; in the experiment with E. coli ATCC 10596 (setting [2]), above 256 µg/mL; in the experiment on S. aureus ATCC 6538 (ATCC6538, No Zinc), above 256 µg/mL; with S. aureus ATCC 6538 (ATCC6538, Zinc (50 μM)) it was above 256 µg/mL; in the experiment with S. uberis ATCC 19436 (ATCC19436, No Zinc), above 256 µg/mL; with S. uberis ATCC 19436 (ATCC19436, Zinc (50 μM)), 0.125 µg/mL (≈ 0.346 µM).

For `CN(C)Cc1ccc2cccc(NS(=O)(=O)Cc3ccccc3)c2n1` [ZDR317, N-(2-((Dimethylamino)methyl)quinolin-8-yl)-1-phenylmethanesulfonamide], the MIC with E. coli ATCC 10596 (setting [1]) was above 256 µg/mL; in the experiment on E. coli ATCC 10596 (setting [2]) it was above 256 µg/mL; in the experiment on S. aureus ATCC 6538 (ATCC6538, No Zinc), above 256 µg/mL; in the experiment with S. aureus ATCC 6538 (ATCC6538, Zinc (50 μM)), 128 µg/mL (≈ 360 µM); in the experiment on S. uberis ATCC 19436 (ATCC19436, No Zinc), 256 µg/mL (≈ 720 µM); with S. uberis ATCC 19436 (ATCC19436, Zinc (50 μM)), 0.25 µg/mL (≈ 0.703 µM).

For `CC(C)S(=O)(=O)Nc1cccc2ccc(CN(C)C)nc12` [ZDR318, N-(2-((Dimethylamino)methyl)quinolin-8-yl)propane-2-sulfonamide], the MIC is above 256 µg/mL in the experiment on E. coli ATCC 10596 (setting [1]); above 256 µg/mL with E. coli ATCC 10596 (setting [2]); above 256 µg/mL in the experiment on S. aureus ATCC 6538 (ATCC6538, No Zinc); above 256 µg/mL with S. aureus ATCC 6538 (ATCC6538, Zinc (50 μM)); 256 µg/mL (≈ 833 µM) with S. uberis ATCC 19436 (ATCC19436, No Zinc); 32 µg/mL (≈ 104 µM) with S. uberis ATCC 19436 (ATCC19436, Zinc (50 μM)).

Take `COC(=O)c1sccc1S(=O)(=O)Nc1cccc2ccc(CN(C)C)nc12` [ZDR319, Methyl 3-(N-(2-((dimethylamino)methyl)quinolin-8-yl)sulfamoyl)thiophene-2-carboxylate]: the minimal inhibitory concentration (MIC) in the experiment with E. coli ATCC 10596 (setting [1]) was above 256 µg/mL; in the experiment on E. coli ATCC 10596 (setting [2]), above 256 µg/mL; in the experiment with S. aureus ATCC 6538 (ATCC6538, No Zinc), above 256 µg/mL; in the experiment with S. aureus ATCC 6538 (ATCC6538, Zinc (50 μM)) it was above 256 µg/mL; in the experiment on S. uberis ATCC 19436 (ATCC19436, No Zinc), above 256 µg/mL; in the experiment with S. uberis ATCC 19436 (ATCC19436, Zinc (50 μM)), 1 µg/mL (≈ 2.47 µM).

Turning to `CN(C)Cc1ccc2cccc(NS(=O)(=O)Cc3ccc(C(F)(F)F)cc3)c2n1` [ZDR320, N-(2-((Dimethylamino)methyl)quinolin-8-yl)-1-(4-(trifluoromethyl)phenyl)methanesulfonamide], the MIC is above 256 µg/mL with E. coli ATCC 10596 (setting [1]); above 256 µg/mL with E. coli ATCC 10596 (setting [2]); above 256 µg/mL with S. aureus ATCC 6538 (ATCC6538, No Zinc); 128 µg/mL (≈ 302 µM) in the experiment with S. aureus ATCC 6538 (ATCC6538, Zinc (50 μM)); 256 µg/mL (≈ 605 µM) with S. uberis ATCC 19436 (ATCC19436, No Zinc); 0.0625 µg/mL (≈ 0.148 µM) in the experiment with S. uberis ATCC 19436 (ATCC19436, Zinc (50 μM)).

Source of the values: patent US11691949B2, “Quinoline sulfonamide compounds and their use as antibacterial agents” (OTAGO INNOVATION LIMITED, priority 2017, dated 2023).
